Measurements: patent US20260131003A1, “Method and kit for treating skin infections” (Koite Health Oy, priority 2020, published 2026)

System: Staphylococcus aureus biofilm
Test: Monospecies S. aureus biofilm model, light exposure after ICG incubation, CFU counting
Type: cell-based
Details: for reduction in bacterial counts: three-day maturated biofilm
Method: Monospecies S. Aureus biofilm model experiments were performed to study the effect of single, or recurring application of dual-light aPDT or its parts during the biofilm formation process. Flat-bottom Nunclon Delta well plates (Thermo Fisher Scientific Inc, US), were used, and the biofilm experiments were divided into different setups based on maturation age and the therapy given.
Applications of both single- and dual-light therapies were scheduled to mimic the daily use of antibacterial light therapy. The total amount of […] as kept unchanged in different treatment protocols, and the concentration of the ICG photosensitizer (if given) were identical. In the first setting, S. aureus biofilm was incubated for either one day or three days, and a single dose of light with ICG was applied at the end of the growth period. In the second setting, the biofilm was incubated for either three days or six days, and a daily dose of light ICG with was applied during incubation. In each setting, the last treatment was followed by plating onto brain heart infusion (BHI)-agar dishes for colony-forming unit (CFU) counting.
Staphylococcus Aureus bacteria were grown for 18 h in an incubator (NuAire DH autoflow 5500, NuAire inc, US), at +36 degrees C, 5% CO2 in BHI broth (Bio-Rad 3564014, Bio-Rad Laboratories, Inc, US). The resulting bacterial suspension was diluted with a 0.9% NaCl solution until an optical density (OD) of 0.46 was reached. The optical density was measured by a spectrophotometer (Varian Cary 100 Bio UV-VIS, Agilent Technologies, Inc, US), and then with a Den 1 McFarland Densitometer (Biosan, Riga, Latvia).
Biofilms were grown in flat-bottom 96-well plates (Thermo Fisher Scientific Inc, US) by placing 100 μl of 0.46 OD S. aureus suspension in each well, with 100 μl of BHI-broth growth medium. The well plates were then incubated in a growth chamber (36° C., 5% CO^2). The BHI-broth medium was changed daily to supply fresh growth medium and to wash away the debris. The change of the medium in each well was performed by removing 100 μl of the medium and replacing it with a similar amount of fresh BHI broth.
Before the light exposure took place, the growth medium was meticulously removed by pipetting and subsequently replaced with an equal amount of indocyanine green solution (Verdye, Diagnostic Green, GmBH), tittered to a concentration of 250 μg/ml. The indocyanine green was left to incubate at room temperature and in the dark for 10 minutes. After this incubation period, the biofilm was washed with a 0.9% NaCl solution. Then, the 0.9% solution of NaCl was added to each well to reach a total volume of 200 μl.
Light exposure was performed using specific, custom-made LED light sources (Lumichip Oy, Espoo, Finland). The exposure time was calculated from the determined light amount and known irradiances, which had been previously measured with a light energy meter (Thorlabs PM 100D with S121C sensor head, Thorlabs Inc, US) and a spectroradiometer (BTS256, Gigahertz-Optik GmbH, Germany), respectively. After the exposure, the BHI broth was changed and the plates were placed in the incubator, or, if the light exposure was final, the biofilm was scraped for CFU counting, as described below. Excitation lights were applied with two single-wave LED light sources with peak intensities at 810 nm or at 405 nm, and with a dual-wave LED light chip simultaneously producing two separate peak intensities at 405 nm and at 810 nm.
Antibacterial photodynamic therapy light exposure was administered at an 810-nm peak wavelength LED array on top of the well plate. The resulting light irradiance was 100 mW/cm^2, and the provided light energy was 100 J/cm^2. Antibacterial blue light was administered at a 405-nm peak wavelength LED array, with a resulting irradiance of 80 mW/cm^2, and resulting light energy of 100 J/cm^2. […]

CC1(C)C(/C=C/C=C/C=C/C=C2\N(CCCCS(=O)(=O)O)c3ccc4ccccc4c3C2(C)C)=[N+](CCCCS(=O)(=O)[O-])c2ccc3ccccc3c21 [ICG, indocyanine green]
antibacterial effectivity by dual-light relative energy ratio (1/4 NIR (810 nm) to 3/4 aBL (405 nm) compared with 1/1 and 3/4 NIR to 1/4 aBL, largest difference in 6-day daily treated biofilm): most effective
antibacterial efficacy of simultaneous ICG/810-nm aPDT and 405-nm aBL versus single-light aPDT or aBL (S. aureus biofilm, overall conclusion): significantly improved antibacterial efficacy
antibacterial efficiency of dual-light aPDT versus single light (CFU count) (one-day biofilm, single dose, ICG 250 μg/ml, 405 nm + 810 nm simultaneously, total 100 J/cm^2): significantly more efficient than single-light aBL or aPDT
antibacterial effect (CFU count) (one-day biofilm, single light dose, ICG 250 μg/ml, all modalities (single-light aPDT 810 nm, dual-light aPDT)): bactericidal
reduction in bacterial counts (single exposure of aPDT (ICG 250 μg/ml, 810 nm, 100 J/cm^2)): four
reduction in bacterial counts (single exposure of dual-light aPDT (ICG 250 μg/ml, 405 nm + 810 nm)): four
